Assay results taken from publication PMC9186491, “Novel Small Molecule Tyrosine Kinase 2 Pseudokinase Ligands Block Cytokine-Induced TYK2-Mediated Signaling Pathways” (Frontiers in Immunology, 2022).
Values after ≈ are worked out from the molar mass of the structure shown. Like-named read-outs stand apart in the source and are kept apart here.

Experiments:
[1] = molecular target: T1, JAK2 JH2 pseudokinase domain (Homo sapiens, UniProt O60674); assay: KdELECT competition binding assay, JAK2 JH2; details: read-out: JAK Binding Selectivity (Kd) Pseudokinase Domain (JH2) JAK2
T1 construct: purchased Eurofins DiscoverX Corporation (contract assay)
Description: (§1) The KdELECT competition assays were performed to test the binding affinity of compounds to the JH1 kinase region or JH2 pseudokinase region in TYK2 or JAK by ligand competition with JH1 or JH2 protein segments. The assay was carried out at Eurofins DiscoverX Corporation following the established standard protocol (DiscoverX, San Diego, CA). In this assay, compounds that bind to the kinase or pseudokinase protein regions prevent the protein binding to the immobilized ligand and reduce the amount of kinase matter captured on the solid surface. […] Dissociation constants (Kds) for test compound-kinase interactions are calculated by measuring the amount of kinase captured on the solid support as a function of the test compound concentration. […] The ligated beads were blocked with excess biotin and washed with blocking buffer to remove unbound ligand and to reduce nonspecific binding. […] All reactions were performed in polypropylene 384-well plates with a final volume of 20 μL. […] The beads were then re-suspended in the elution buffer and incubated at room temperature with shaking for 30 minutes. The kinase concentration in the eluant was measured by qPCR. Two replicates were performed and averaged to obtain the Kd measurement.

GSH = format: in vitro ADME
CYP450 2C9 = CYP450 2C9 (Homo sapiens, UniProt P11712); assay: CYP450 inhibition, 2C9; format: in vitro ADME
[2] = system: IL23-induced TYK2/phosphoSTAT3 (Tyr705) in Kit225 T cells; assay: Kit225 T cell assay for IL23-induced TYK2/phosphoSTAT3 activity; format: cell-based, human; details: Homo sapiens; Kit225 cells, 100 ng/mL IL23, AlphaLISA; read-out: IC50 IL23-induced-STAT3 Phosphorylation
Description: (§2) The cells were treated with serially diluted compounds for 1 hour and stimulated with 100 ng/mL human recombinant IL23 (R&D Systems) for 20 minutes. The treated cells were then lysed and cellular phosphorylated-STAT3 (Tyr705) levels were measured by AlphaLISA (PerkinElmer, Cat# ALSU-PST3) according to the manufacturer’s instructions.

CYP450 1A2 = molecular target: T2, CYP450 1A2 (Homo sapiens, UniProt P05177); assay: CYP450 inhibition, 1A2; format: in vitro ADME
T2 sequence (P05177 1-516): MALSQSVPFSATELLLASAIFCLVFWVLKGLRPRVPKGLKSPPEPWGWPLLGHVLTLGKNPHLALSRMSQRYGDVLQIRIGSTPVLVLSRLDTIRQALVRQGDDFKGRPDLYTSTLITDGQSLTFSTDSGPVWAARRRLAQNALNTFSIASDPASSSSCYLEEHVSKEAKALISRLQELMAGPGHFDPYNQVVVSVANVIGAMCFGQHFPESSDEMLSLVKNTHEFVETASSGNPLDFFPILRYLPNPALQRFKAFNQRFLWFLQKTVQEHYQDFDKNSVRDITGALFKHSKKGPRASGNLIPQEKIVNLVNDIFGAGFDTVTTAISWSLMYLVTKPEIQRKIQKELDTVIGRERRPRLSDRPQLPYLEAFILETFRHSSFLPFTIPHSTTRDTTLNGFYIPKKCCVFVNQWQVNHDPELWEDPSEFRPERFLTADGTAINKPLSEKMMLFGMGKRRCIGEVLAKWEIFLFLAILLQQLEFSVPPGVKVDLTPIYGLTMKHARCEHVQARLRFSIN

[3] = system: JAK1/3-dependent IL2-induced phosphorylation of STAT5 (Tyr694/699) in Kit225 cells; assay: JAK cellular selectivity assay, IL2-pSTAT5 (JAK1/3); format: cell-based; details: Homo sapiens; Kit225 cells; read-out: JAK Cellular Selectivity (IC50) IL2-pSTAT5 (JAK1/3)
Description: (§3) The cells were then ready for the assay after incubating for 2 hours in a humidified, 5% CO2 cell culture incubator at 37°C. […] The curve fit was generated, and statistical analysis was performed using GraphPad Prism. IC50 values were derived by non-linear regression analysis and defined as the compound concentration at which the response level was reduced to half of its maximum relative to a DMSO control.

[4] = molecular target: T3, JAK1 JH2 pseudokinase domain (Homo sapiens, UniProt P23458); assay: KdELECT competition binding assay, JAK1 JH2; details: read-out: JAK Binding Selectivity (Kd) Pseudokinase Domain (JH2) JAK1
T3 construct: purchased Eurofins DiscoverX Corporation (contract assay)
Description: as §1

LM T1/2, H = format: in vitro ADME; details: human, liver microsomes
LM T1/2, D = format: in vitro ADME; details: dog, liver microsomes
PPB, R = format: in vitro ADME; details: rat, plasma
[5] = system: JAK2-dependent EPO-induced phosphorylation of STAT5 (Tyr694/699) in TF1 cells; assay: JAK cellular selectivity assay, EPO-pSTAT5 (JAK2); format: cell-based, human; details: Homo sapiens, TF-1; TF1 cells; read-out: JAK Cellular Selectivity (IC50) EPO-pSTAT5 (JAK2)
Description: as §3

PPB, D = format: in vitro ADME; details: dog, plasma
Solubility (PBS/Fas/Fes) = format: physicochemical
LogD = format: physicochemical
[6] = system: IFNα-induced TYK2/phosphoSTAT1 (Tyr701) in Kit225 T cells; assay: Kit225 T cell assay for IFNα-induced TYK2/phosphoSTAT1 activity; format: cell-based, human; details: Homo sapiens; Kit225 cells, 80 ng/mL IFNα, AlphaLISA; read-out: IC50 IFNα-induced-STAT1 Phosphorylation
Description: as §2, with “80” for “100”, “IFNα” for “IL23”, “15” for “20”, “phosphorylated-STAT1 (Tyr701)” for “phosphorylated-STAT3 (Tyr705)”, “Cat#ALSU-PST1)” for “Cat# ALSU-PST3)”

PPB, M = format: in vitro ADME; details: mouse, plasma
LM T1/2, Mk = format: in vitro ADME; details: monkey, liver microsomes
CYP450 3A4 = CYP450 3A4 (Homo sapiens, UniProt P08684); assay: CYP450 inhibition, 3A4; format: in vitro ADME
PPB, Mk = format: in vitro ADME; details: monkey, plasma
CYP450 2C19 = CYP450 2C19 (Homo sapiens, UniProt P33261); assay: CYP450 inhibition, 2C19; format: in vitro ADME
[7] = FaSSIF, read-out: Solubility, Fas
[8] = FeSSIF (Fes [sic]), fessif, read-out: Solubility, Fes
[9] = PBS, aqueous buffer, read-out: Solubility, PBS
[10] = 3A4(m), read-out: CYP450 3A4(m)
[11] = 3A4(t), read-out: CYP450 3A4(t)

CYP450 2C9, sequence (P11712 whole entry): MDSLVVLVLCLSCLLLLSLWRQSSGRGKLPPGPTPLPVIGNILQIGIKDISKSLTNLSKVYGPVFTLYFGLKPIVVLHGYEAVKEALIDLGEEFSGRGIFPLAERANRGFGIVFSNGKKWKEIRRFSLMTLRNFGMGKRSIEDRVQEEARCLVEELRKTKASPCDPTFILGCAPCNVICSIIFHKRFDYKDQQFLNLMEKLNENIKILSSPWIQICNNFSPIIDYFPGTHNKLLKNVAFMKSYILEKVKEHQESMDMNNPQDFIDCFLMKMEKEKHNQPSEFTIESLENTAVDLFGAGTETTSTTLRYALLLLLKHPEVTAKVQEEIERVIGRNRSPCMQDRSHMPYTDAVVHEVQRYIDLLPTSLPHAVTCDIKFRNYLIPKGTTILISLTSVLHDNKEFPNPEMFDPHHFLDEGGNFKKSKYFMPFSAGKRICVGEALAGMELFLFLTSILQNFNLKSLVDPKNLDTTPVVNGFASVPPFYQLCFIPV
T1 sequence (O60674 545-809 limits assumed): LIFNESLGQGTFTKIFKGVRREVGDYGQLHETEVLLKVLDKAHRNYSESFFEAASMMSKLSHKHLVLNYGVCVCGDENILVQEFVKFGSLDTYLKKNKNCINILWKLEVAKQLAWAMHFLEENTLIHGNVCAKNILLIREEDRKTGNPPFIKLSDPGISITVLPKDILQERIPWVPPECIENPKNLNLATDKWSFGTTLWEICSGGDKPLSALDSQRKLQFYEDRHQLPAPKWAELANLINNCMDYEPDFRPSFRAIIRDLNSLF
T3 sequence (P23458 583-855 limits assumed): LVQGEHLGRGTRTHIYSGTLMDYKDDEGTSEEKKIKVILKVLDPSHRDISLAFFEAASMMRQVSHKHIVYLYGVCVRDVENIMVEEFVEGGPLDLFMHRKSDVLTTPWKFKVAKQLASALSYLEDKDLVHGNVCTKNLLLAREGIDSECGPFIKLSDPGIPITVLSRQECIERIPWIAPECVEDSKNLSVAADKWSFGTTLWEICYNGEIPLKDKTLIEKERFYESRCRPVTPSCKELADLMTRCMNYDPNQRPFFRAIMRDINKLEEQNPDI
CYP450 3A4, sequence (P08684 whole entry): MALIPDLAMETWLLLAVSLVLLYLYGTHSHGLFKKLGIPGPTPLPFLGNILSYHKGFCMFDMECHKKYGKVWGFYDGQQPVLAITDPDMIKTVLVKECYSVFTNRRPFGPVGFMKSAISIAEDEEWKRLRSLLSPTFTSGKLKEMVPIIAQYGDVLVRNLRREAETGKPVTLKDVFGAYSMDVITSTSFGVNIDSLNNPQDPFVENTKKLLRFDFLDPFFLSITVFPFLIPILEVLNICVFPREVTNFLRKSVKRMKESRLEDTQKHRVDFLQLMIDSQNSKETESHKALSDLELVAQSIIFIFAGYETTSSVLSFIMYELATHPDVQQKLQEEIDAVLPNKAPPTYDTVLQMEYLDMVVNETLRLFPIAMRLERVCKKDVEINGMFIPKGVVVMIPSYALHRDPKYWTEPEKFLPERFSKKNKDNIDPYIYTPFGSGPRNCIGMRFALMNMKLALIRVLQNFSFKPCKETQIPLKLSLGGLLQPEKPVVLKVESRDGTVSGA
CYP450 2C19, sequence (P33261 whole entry): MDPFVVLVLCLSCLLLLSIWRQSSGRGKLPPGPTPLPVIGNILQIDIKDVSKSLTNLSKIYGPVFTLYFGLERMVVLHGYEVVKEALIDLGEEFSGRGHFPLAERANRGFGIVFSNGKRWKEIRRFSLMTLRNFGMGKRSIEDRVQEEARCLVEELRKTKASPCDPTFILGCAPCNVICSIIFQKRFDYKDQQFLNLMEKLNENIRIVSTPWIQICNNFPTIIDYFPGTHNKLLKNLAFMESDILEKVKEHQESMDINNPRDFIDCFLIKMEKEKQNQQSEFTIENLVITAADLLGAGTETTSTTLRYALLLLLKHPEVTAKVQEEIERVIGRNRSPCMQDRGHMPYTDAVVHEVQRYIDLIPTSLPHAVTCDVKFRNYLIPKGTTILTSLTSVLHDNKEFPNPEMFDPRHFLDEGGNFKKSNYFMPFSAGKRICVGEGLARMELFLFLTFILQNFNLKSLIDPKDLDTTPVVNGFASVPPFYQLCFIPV

CNC(=O)c1nnc(NC(=O)N2CCC2)cc1Nc1cccc(-c2ncn(C)n2)c1OC [SHR8751]
Kd [1]: 290 ± 99 nM
GSH (GSH): negative
IC50 (CYP450 2C9): > 30000 nM
IC50 [2]: 27 nM
IC50 (CYP450 1A2): > 30000 nM
IC50 [3]: > 10000 nM
Kd [4]: 3.7 ± 0.14 nM
half-life (LM T1/2, H): > 139 min
half-life (LM T1/2, D): > 139 min
fraction unbound (PPB, R): 0.329
IC50 [5]: > 10000 nM
fraction unbound (PPB, D): 0.377
solubility (Solubility (PBS/Fas/Fes); [7]): 60.7 µM (≈ 26.6 µg/mL)
solubility (Solubility (PBS/Fas/Fes); [8]): 60.9 µM (≈ 26.6 µg/mL)
solubility (Solubility (PBS/Fas/Fes); [9]): 17.6 µM (≈ 7.7 µg/mL)
logD (LogD): 0.43
IC50 [6]: 37 nM
fraction unbound (PPB, M): 0.35
half-life (LM T1/2, Mk): > 99 min
IC50 (CYP450 3A4; [10]): > 30000 nM
IC50 (CYP450 3A4; [11]): > 30000 nM
fraction unbound (PPB, Mk): 0.281
IC50 (CYP450 2C19): > 30000 nM

CNC(=O)c1nnc(NC(=O)C2CC2)c2[nH]c(-c3ccc(N)cc3OC)cc12 [SHR2396]
Kd [1]: 190 ± 99 nM
GSH (GSH): negative
IC50 (CYP450 2C9): > 30000 nM
IC50 [2]: 5.9 nM
IC50 (CYP450 1A2): > 30000 nM
IC50 [3]: 1400 ± 1400 nM
Kd [4]: 0.52 ± 0.4 nM
half-life (LM T1/2, H): > 139 min
half-life (LM T1/2, D): > 139 min
fraction unbound (PPB, R): 0.0474
IC50 [5]: > 10000 nM
fraction unbound (PPB, D): 0.0434
solubility (Solubility (PBS/Fas/Fes); [7]): 8.6 µM (≈ 3.27 µg/mL)
solubility (Solubility (PBS/Fas/Fes); [8]): 8.2 µM (≈ 3.12 µg/mL)
solubility (Solubility (PBS/Fas/Fes); [9]): 0.34 µM (≈ 0.129 µg/mL)
logD (LogD): 1.19
IC50 [6]: 15 nM
fraction unbound (PPB, M): 0.0292
half-life (LM T1/2, Mk): 50 min
IC50 (CYP450 3A4; [10]): > 30000 nM
IC50 (CYP450 3A4; [11]): > 30000 nM
fraction unbound (PPB, Mk): 0.0351
IC50 (CYP450 2C19): > 30000 nM

[2H]C([2H])([2H])NC(=O)c1nnc(NC(=O)N2CCC2)cc1Nc1cccc(-c2ncn(C)n2)c1OC [SHR9332]
Kd [1]: 220 nM
GSH (GSH): negative
IC50 (CYP450 2C9): > 30000 nM
IC50 [2]: 79 nM
IC50 (CYP450 1A2): > 30000 nM
IC50 [3]: > 10000 nM
Kd [4]: 1.8 nM
half-life (LM T1/2, H): 47.5 min
half-life (LM T1/2, D): 46.5 min
fraction unbound (PPB, R): 0.254
IC50 [5]: > 10000 nM
fraction unbound (PPB, D): 0.325
solubility (Solubility (PBS/Fas/Fes); [7]): 71.4 µM (≈ 31.5 µg/mL)
solubility (Solubility (PBS/Fas/Fes); [8]): 108 µM (≈ 47.6 µg/mL)
solubility (Solubility (PBS/Fas/Fes); [9]): 25.6 µM (≈ 11.3 µg/mL)
logD (LogD): 0.48
IC50 [6]: 76 nM
fraction unbound (PPB, M): 0.249
half-life (LM T1/2, Mk): 30.9 min
IC50 (CYP450 3A4; [10]): > 30000 nM
IC50 (CYP450 3A4; [11]): > 30000 nM
fraction unbound (PPB, Mk): 0.231
IC50 (CYP450 2C19): > 30000 nM
